This is an account of results in US12195470B2, “7-phenoxy-N-(3-azabicyclo[3.2.1]octan-8-yl-6,7-dihydro-5H-pyrrolo[1,2-b][1,2,4]triazol-2-amine derivatives and related compounds as gamma- secretase modulators for the treatment of alzheimer's disease” (Hoffmann-La Roche Inc., priority 2018, dated 2025).

For the test, the target named is γ-secretase (Homo sapiens, UniProt P49768). Kind of test: Cellular γ-secretase assay (inhibition of Aβ42 secretion, AlphaLisa). Particulars: human neuroglioma H4 cells overexpressing human APP695 Swedish double mutation, 24 h compound incubation. Type of test: cell-based. Here is the method:
2.1) Assay Procedure: Cellular γ-Secretase Assay Human neuroglioma H4 cells overexpressing human APP695 with the Swedish double mutation (K595N/M596L) were plated at 30,000 cells/well/100 μL in 96-well plates in IMDM containing 10% FCS, 0.2 mg/L Hygromycin B and incubated at 37° C., 5% CO2. 3-4 h post plating, compounds are a diluted in media and 50 μL is added as 1.5-fold concentrate to achieve the final concentration. Compound incubation is performed for 24 h. Final doses typically range from 4 μM down to 0.0013 μM in half-log steps resulting in an eight-point dose response curve. Appropriate controls using vehicle only and reference compound were applied to this assay. The final concentration of Me2SO was 0.4%. After incubation at 37° C., 5% CO2, the supernatant was subjected to quantification of secreted Aβ42 by the means of an AlphaLisa® assay kit (Human Amyloid beta 1-42 Kit, Perkin Elmer Inc.). 20 μL of the cell culture supernatant was transferred to an assay plate. Then 10 μL of a mixture of the AlphaLisa® coupled capture antibody and the biotinylated detection antibody was added and incubated for 3 h at RT while softly shaking the assay plate. After a further addition of 20 μL of the Donor beads the assay plate was incubated for 30 min at RT and constant shaking without exposure to direct light. The assay plate was then read on a Paradigm AlphaLisa® Reader using the build-in program with excitation at 680 nm and emission at 570 nm. The measured signals were then used to calculate IC50 values for inhibition of Aβ42 secretion by nonlinear regression fit analysis using XLfit 5.3 software (from IDBS Ltd).
In turn, `COc1cc(N2C[C@H]3CC[C@@H](C2)[C@@H]3Nc2nc3n(n2)CC[C@H]3Oc2cc(F)cc(F)c2)cnn1` (single isomer, unassigned) [Example 1] displayed a half-inhibitory concentration (IC50) of 12.8 nM.

Compound `COc1cc(N2C[C@H]3CC[C@@H](C2)[C@@H]3Nc2nc3n(n2)CC[C@@H]3Oc2cc(F)cc(F)c2)cnn1` (single isomer, unassigned) [Example 2] yielded an IC50 of 73.8 nM. This IC50 lies about 5.8-fold higher than the previous one.

`COc1cc(N2C[C@H]3CC[C@@H](C2)[C@@H]3Nc2nc3n(n2)CCC[C@H]3Oc2cc(F)cc(F)c2)cnn1` (single isomer, unassigned) [Example 9] gave an IC50 of 10.6 nM.

Compound `Cc1cc(N2C[C@H]3CC[C@@H](C2)[C@@H]3Nc2nc3n(n2)CCC[C@@H]3Oc2cc(F)cc(Cl)c2)cnn1` (single isomer, unassigned) [Example 14] displayed an IC50 of 62.7 nM.

`COc1cc(N2C[C@H]3CC[C@@H](C2)[C@@H]3Nc2nc3n(n2)CCC[C@H]3Oc2ccccc2Cl)cnn1` (single isomer, unassigned) [Example 25]: the concentration for half-maximal inhibition (IC50) is 15.7 nM.

With `Cc1cc(N2C[C@H]3CC[C@@H](C2)[C@@H]3Nc2nc3n(n2)CC[C@@H]3Oc2ccc(Cl)cc2)ncn1` (single isomer, unassigned) [Example 28], half-maximal inhibition (IC50) required 71.4 nM.

The compound `Cc1cc(N2C[C@H]3CC[C@@H](C2)[C@@H]3Nc2nc3n(n2)CC[C@@H]3Oc2cccc(Cl)c2)ncn1` (single isomer, unassigned) [Example 30] had a concentration for half-maximal inhibition (IC50) of 51.9 nM.

With `Cc1cc(N2C[C@H]3CC[C@@H](C2)[C@@H]3Nc2nc3n(n2)CCC[C@H]3Oc2ccc(F)cc2F)ncn1` (single isomer, unassigned) [Example 37], half-maximal inhibition (IC50) required 21.6 nM.

The compound `Cc1cc(N2C[C@H]3CC[C@@H](C2)[C@@H]3Nc2nc3n(n2)CC[C@H]3Oc2cc(F)cc(F)c2)ncn1` (single isomer, unassigned) [Example 39] displayed an IC50 of 15.6 nM.

`Cc1cc(N2C[C@H]3CC[C@@H](C2)[C@@H]3Nc2nc3n(n2)CCCC[C@@H]3Oc2ccc(F)c(F)c2F)ncn1` (single isomer, unassigned) [Example 62] gave an IC50 of 65.8 nM.

Usually IC50 stands for the midpoint of a concentration-inhibition curve. Low readings indicate higher potency, high ones lower potency.
